Like-named read-outs stand apart in the source and are kept apart here.
What was measured:
Experiment in all cases: In vitro antibacterial activity (MIC), agar dilution
[1] = test system: ESCHERICHIA COLI KNK 437; assay type: cell-based
[2] = test system: NOCARDIA ARSTEROIDES ATCC 9970; assay type: cell-based; conditions: Nocardia ATCC 9970; BHI agar, 35-37 °C, 20-24 h
[3] = test system: PSEUDOMONAS AERUGINOSA DPHD-2862; assay type: cell-based; conditions: P. aeruginosa DPHD-2862; BHI agar, 35-37 °C, 20-24 h
[4] = test system: KLEBSIELLA PNEUMONIAE ATCC 8045; assay type: cell-based; conditions: K. pneumoniae ATCC 8045; BHI agar, 35-37 °C, 20-24 h
[5] = test system: ESCHERICHIA COLI H560; assay type: cell-based; conditions: E. coli H560; BHI agar, 35-37 °C, 20-24 h
[6] = test system: ACINETOBACTER CALCOACETICUS CMX 669; assay type: cell-based; conditions: A. calcoaceticus CMX 669; BHI agar, 35-37 °C, 20-24 h
[7] = test system: STAPHYLOCOCCUS EPIDERMIDIS 3519; assay type: cell-based
[8] = test system: EN[…] ATCC 8043; assay type: cell-based, Enterococcus faecium; conditions: E. faecium ATCC 8043; BHI agar, 35-37 °C, 20-24 h
Protocol: (§1) Representative compounds of the present invention were assayed in vitro for antibacterial activity as follows: Twelve petri dishes containing successive aqueous dilutions of the test compound mixed with 10 mL of sterilized Brain Heart Infusion (BHI) agar (Difco 0418-01-5) were prepared. Each plate was inoculated with 1:100 (or 1:10 for slow-growing strains, such as Micrococcus and Streptococcus) dilutions of up to 32 different microorganisms, using a Steers replicator block. The inoculated plates were incubated at 35°-37° C. for 20 to 24 hours. In addition, a control plate, using BHI agar containing no test compound, was prepared and incubated at the beginning and end of each test.
(§2) An additional plate containing a compound having known susceptibility patterns for the organisms being tested and belonging to the same antibiotic class as the test compound was also prepared and incubated as a further control, as well as to provide test-to-test comparability. Erythromycin A was used for this purpose.
(§3) After incubation, each plate was examined. The minimum inhibitory concentration (MIC) was defined as the lowest concentration of drug yielding no growth, a slight haze, or sparsely isolated colonies on the inoculum spot as compared to the growth control.

[9] = test system: M[…] ATCC 9341; assay type: cell-based, Micrococcus luteus; conditions: M. luteus ATCC 9341; BHI agar, 35-37 °C, 20-24 h
Protocol: as §1, §2, §3

[10] = test system: M[…] ATCC 4698; assay type: cell-based, Micrococcus luteus; conditions: M. luteus ATCC 4698; BHI agar, 35-37 °C, 20-24 h
Protocol: as §1, §2, §3

[11] = test system: STAPHYLOCOCCUS AUREUS NCTC10649M; assay type: cell-based; conditions: S. aureus NCTC10649M; BHI agar, 35-37 °C, 20-24 h
[12] = test system: PSEUDOMONAS CEPACIA 296I; assay type: cell-based; conditions: P. cepacia 296I; BHI agar, 35-37 °C, 20-24 h
[13] = test system: STAPHYLOCOCCUS AUREUS A-5278; assay type: cell-based; conditions: S. aureus A-5278; BHI agar, 35-37 °C, 20-24 h
[14] = test system: STREPTOCOCCUS PYOGENES PIU 2548; assay type: cell-based; conditions: S. pyogenes PIU 2548; BHI agar, 35-37 °C, 20-24 h
[15] = test system: STAPHYLOCOCCUS AUREUS ATCC 6538P; assay type: cell-based; conditions: S. aureus ATCC 6538P; BHI agar, 35-37 °C, 20-24 h
[16] = test system: PSEUDOMONAS AERUGINOSA BMH10; assay type: cell-based; conditions: P. aeruginosa BMH10; BHI agar, 35-37 °C, 20-24 h
[17] = test system: PROVIDENCIA STUARTII CMX 640; assay type: cell-based
[18] = test system: STREPTOCOCCUS PYOGENES EES61; assay type: cell-based; conditions: S. pyogenes EES61; BHI agar, 35-37 °C, 20-24 h
[19] = test system: STAPHYLOCOCCUS AUREUS CMX 642A; assay type: cell-based; conditions: S. aureus CMX 642A; BHI agar, 35-37 °C, 20-24 h
[20] = test system: ENTEROBACTER AEROGENES ATCC 13048; assay type: cell-based; conditions: E. aerogenes ATCC 13048; BHI agar, 35-37 °C, 20-24 h
[21] = test system: MYCOBACTERIUM SMEGMATIS ATCC 114; assay type: cell-based; conditions: M. smegmatis ATCC 114; BHI agar, 35-37 °C, 20-24 h
[22] = test system: STAPHYLOCOCCUS AUREUS CMX 553; assay type: cell-based; conditions: S. aureus CMX 553; BHI agar, 35-37 °C, 20-24 h
[23] = test system: PSEUDOMONAS AERUGINOSA DPHD-5263; assay type: cell-based; conditions: P. aeruginosa DPHD-5263; BHI agar, 35-37 °C, 20-24 h
[24] = test system: STREPTOCOCCUS PYOGENES 930; assay type: cell-based; conditions: S. pyogenes 930; BHI agar, 35-37 °C, 20-24 h
[25] = test system: ESCHERICHIA COLI JUHL; assay type: cell-based
[26] = E. coli KNK 437, BHI agar, 35-37 °C, 20-24 h
[27] = S. epidermidis 3519, BHI agar, 35-37 °C, 20-24 h
[28] = P. stuartii CMX 640, BHI agar, 35-37 °C, 20-24 h

Structure (SMILES)	minimum inhibitory concentration (MIC) [1, 26]	minimum inhibitory concentration (MIC) [2]	minimum inhibitory concentration (MIC) [3]	minimum inhibitory concentration (MIC) [4]	minimum inhibitory concentration (MIC) [5]	minimum inhibitory concentration (MIC) [8]	minimum inhibitory concentration (MIC) [9]	minimum inhibitory concentration (MIC) [10]	minimum inhibitory concentration (MIC) [11]	minimum inhibitory concentration (MIC) [13]	minimum inhibitory concentration (MIC) [14]	minimum inhibitory concentration (MIC) [15]	minimum inhibitory concentration (MIC) [16]	minimum inhibitory concentration (MIC) [18]	minimum inhibitory concentration (MIC) [19]	minimum inhibitory concentration (MIC) [20]	minimum inhibitory concentration (MIC) [21]	minimum inhibitory concentration (MIC) [22]	minimum inhibitory concentration (MIC) [23]	minimum inhibitory concentration (MIC) [24]	other results
CC[C@H]1OC(=O)[C@H](C)C[C@H](C)[C@@H](O[C@@H]2O[C@H](C)C[C@H](N(C)C)[C@H]2O)[C@](C)(OC)C[C@@H](C)C(=NOC)[C@H](C)[C@@H](O)[C@]1(C)O [Ex. 6]	25	0.78	> 100	> 100	50	0.78	0.39	0.39	6.2	> 100	0.78	6.2	> 100	0.39	6.2	> 100	3.1	6.2	50	> 100	minimum inhibitory concentration (MIC) [6]: > 100; minimum inhibitory concentration (MIC) [7, 27]: 12.5; minimum inhibitory concentration (MIC) [12]: 12.5; minimum inhibitory concentration (MIC) [17, 28]: 100
CC[C@H]1OC(=O)[C@H](C)C[C@H](C)[C@@H](O[C@@H]2O[C@H](C)C[C@H](N(C)C)[C@H]2O)[C@](C)(OC)C[C@@H](C)C(=O)[C@H](C)[C@H]2N(CCc3ccc(Oc4ccccc4)cc3)C(=O)O[C@]12C [Ex. 5]	> 100	3.1	> 100	> 100	> 100	1.56	3.1	1.56	6.2	25	3.1	12.5	> 100	1.56	12.5	> 100	3.1	6.2	> 100	6.2	minimum inhibitory concentration (MIC) [6]: > 100; minimum inhibitory concentration (MIC) [7, 27]: 12.5; minimum inhibitory concentration (MIC) [12]: 100; minimum inhibitory concentration (MIC) [17, 28]: > 100
CC[C@H]1OC(=O)[C@H](C)[C@@H](O[C@H]2C[C@@](C)(OC)[C@@H](O)[C@H](C)O2)[C@H](C)[C@@H](O[C@@H]2O[C@H](C)C[C@H](N(C)C)[C@H]2O)[C@](C)(O)C[C@@H](C)C(=O)[C@H](C)[C@@H](O)[C@]1(C)O [Ery A, Erythromycin A, reference compound]		0.05	100	25	25	0.05	0.02	0.2	0.2	> 100	6.2	0.1	100	0.02	0.2	> 100	25	0.2	100	> 100	minimum inhibitory concentration (MIC) [1]: 100; minimum inhibitory concentration (MIC) [7]: 0.1; minimum inhibitory concentration (MIC) [12]: > 100; minimum inhibitory concentration (MIC) [17]: > 100; minimum inhibitory concentration (MIC) [25]: 50
CC[C@H]1OC(=O)[C@H](C)C[C@H](C)[C@@H](O[C@@H]2O[C@H](C)C[C@H](N(C)C)[C@H]2O)[C@](C)(OC)C[C@@H](C)C(=O)[C@H](C)[C@H]2N(CCCCc3ccccc3)C(=O)O[C@]12C [Ex. 4]	> 100	3.1	> 100	> 100	25	0.39	1.56	1.56	1.56	50	0.2	1.56	> 100	0.05	1.56	> 100	1.56	1.56	100	6.2	minimum inhibitory concentration (MIC) [6]: 100; minimum inhibitory concentration (MIC) [7, 27]: 1.56; minimum inhibitory concentration (MIC) [17, 28]: > 100; minimum inhibitory concentration (MIC) ([25]; E. coli JUHL, BHI agar, 35-37 °C, 20-24 h): > 100

— patent US5747466A, “3-deoxy-3-descladinose derivatives of erythromycins A and B” (Abbott Laboratories, priority 1996, dated 1998)
